{"source": "ChEMBL document CHEMBL4507283", "about": "“Data for DCP probe BI-1935” (2021)", "key": {"[1]": {"target": "Cyclin-dependent kinase 7 (Homo sapiens) (UniProt P50613)", "conditions": "Compound concentration 1000.0 nM; call rule not given here"}, "[2]": {"target": "Serotonin 1 (5-HT1) receptor (Rattus norvegicus) (UniProt P28564+P30940+P19327+P28565)", "experiment": "5HT1/R Eurofins-Panlabs selectivity data (BI)", "format": "protein assay", "conditions": "Compound concentration 10.0 uM"}, "[3]": {"target": "Serine/threonine-protein kinase MARK1 (Homo sapiens) (UniProt Q9P0L2)", "conditions": "Compound concentration 1000.0 nM"}, "[4]": {"target": "cAMP-dependent protein kinase catalytic subunit beta (Homo sapiens) (UniProt P22694)", "conditions": "Compound concentration 1000.0 nM"}, "[5]": {"target": "Cathepsin G (Homo sapiens) (UniProt P08311)", "experiment": "PEPCATHEPSG Eurofins-Panlabs selectivity data (BI)", "conditions": "Compound concentration 10.0 uM"}, "[6]": {"target": "5-hydroxytryptamine receptor 4 (Cavia porcellus) (UniProt O70528)", "experiment": "5HT4/GPIG Eurofins-Panlabs selectivity data (BI)", "conditions": "Compound concentration 10.0 uM"}, "[7]": {"system": "Epidermal growth factor receptor (Homo sapiens), P00533 [G719C]", "conditions": "Compound concentration 1000.0 nM"}, "[8]": {"target": "Phosphatidylinositol 5-phosphate 4-kinase type-2 gamma (Homo sapiens) (UniProt Q8TBX8)", "sequence (Q8TBX8 whole entry)": "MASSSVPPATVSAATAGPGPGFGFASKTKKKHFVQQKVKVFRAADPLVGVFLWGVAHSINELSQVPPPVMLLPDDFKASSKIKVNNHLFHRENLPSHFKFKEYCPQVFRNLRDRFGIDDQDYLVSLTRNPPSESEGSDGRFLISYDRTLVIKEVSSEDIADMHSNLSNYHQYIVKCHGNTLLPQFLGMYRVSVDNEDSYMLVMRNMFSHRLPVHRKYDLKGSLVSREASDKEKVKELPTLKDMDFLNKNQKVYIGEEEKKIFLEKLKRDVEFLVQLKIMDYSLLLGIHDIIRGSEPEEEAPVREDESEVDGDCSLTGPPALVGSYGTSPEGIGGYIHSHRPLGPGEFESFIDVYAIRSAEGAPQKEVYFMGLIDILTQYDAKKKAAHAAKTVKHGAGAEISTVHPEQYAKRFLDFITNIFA", "conditions": "Compound concentration 1000.0 nM"}, "[9]": {"target": "Interleukin-1 receptor-associated kinase 3 (Homo sapiens) (UniProt Q9Y616)", "sequence (Q9Y616 whole entry)": "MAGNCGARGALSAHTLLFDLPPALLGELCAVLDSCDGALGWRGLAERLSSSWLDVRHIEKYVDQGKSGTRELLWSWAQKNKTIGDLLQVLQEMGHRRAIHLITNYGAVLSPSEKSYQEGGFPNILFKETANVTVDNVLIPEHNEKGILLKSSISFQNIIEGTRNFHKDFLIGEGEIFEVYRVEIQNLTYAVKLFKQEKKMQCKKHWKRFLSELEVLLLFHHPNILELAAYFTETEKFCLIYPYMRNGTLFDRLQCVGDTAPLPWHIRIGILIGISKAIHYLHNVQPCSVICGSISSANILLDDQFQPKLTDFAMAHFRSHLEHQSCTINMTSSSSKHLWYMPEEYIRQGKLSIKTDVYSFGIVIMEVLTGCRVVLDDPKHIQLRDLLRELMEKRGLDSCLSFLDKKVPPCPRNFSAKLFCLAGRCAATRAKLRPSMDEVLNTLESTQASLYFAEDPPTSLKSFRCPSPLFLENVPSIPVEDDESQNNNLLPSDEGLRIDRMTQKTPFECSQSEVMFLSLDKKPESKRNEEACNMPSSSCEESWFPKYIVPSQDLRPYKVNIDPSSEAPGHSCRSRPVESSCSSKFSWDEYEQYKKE", "conditions": "Compound concentration 1000.0 nM"}, "[10]": {"target": "Voltage-dependent L-type calcium channel subunit alpha-1C (DHP site) (Rattus norvegicus, UniProt P22002)", "experiment": "CA+/DHPSI/RA Eurofins-Panlabs selectivity data (BI)", "conditions": "compound concentration 10 uM, read-out: % Ctrl"}, "[11]": {"target": "Serine/threonine-protein kinase MARK2 (Homo sapiens) (UniProt Q7KZI7)", "conditions": "Compound concentration 1000.0 nM"}, "[12]": {"target": "Proto-oncogene tyrosine-protein kinase ROS (Homo sapiens) (UniProt P08922)", "conditions": "Compound concentration 1000.0 nM"}, "[13]": {"target": "T1, Polyunsaturated fatty acid 5-lipoxygenase (Homo sapiens) (UniProt P09917)", "T1 sequence (whole entry)": "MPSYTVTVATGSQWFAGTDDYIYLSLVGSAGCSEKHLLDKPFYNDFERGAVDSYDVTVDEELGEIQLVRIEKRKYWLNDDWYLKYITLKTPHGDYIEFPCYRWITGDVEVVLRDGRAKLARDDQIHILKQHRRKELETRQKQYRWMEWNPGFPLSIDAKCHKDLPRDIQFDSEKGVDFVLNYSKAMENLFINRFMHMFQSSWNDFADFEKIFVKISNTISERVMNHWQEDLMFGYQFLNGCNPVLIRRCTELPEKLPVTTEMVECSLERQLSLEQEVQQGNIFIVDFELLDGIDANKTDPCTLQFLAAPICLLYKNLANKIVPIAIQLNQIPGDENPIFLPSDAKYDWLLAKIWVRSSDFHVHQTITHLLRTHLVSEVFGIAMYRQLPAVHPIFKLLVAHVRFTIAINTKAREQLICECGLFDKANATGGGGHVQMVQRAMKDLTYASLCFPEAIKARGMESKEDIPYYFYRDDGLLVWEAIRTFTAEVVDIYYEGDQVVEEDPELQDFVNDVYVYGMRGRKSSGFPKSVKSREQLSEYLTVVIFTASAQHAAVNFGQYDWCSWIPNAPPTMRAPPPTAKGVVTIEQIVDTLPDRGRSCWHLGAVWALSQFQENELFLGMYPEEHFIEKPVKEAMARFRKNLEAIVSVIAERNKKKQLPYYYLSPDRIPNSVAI", "experiment": "5LO Eurofins-Panlabs selectivity data (BI)"}, "[14]": {"target": "Sigma non-opioid intracellular receptor 1 (Homo sapiens, UniProt Q99720)", "conditions": "Compound concentration 10.0 uM"}, "[15]": {"target": "Fibroblast growth factor receptor 1 (Homo sapiens) (UniProt P11362)", "conditions": "Compound concentration 1000.0 nM"}, "[16]": {"target": "Mitogen-activated protein kinase 8 (Homo sapiens) (UniProt P45983)", "conditions": "Compound concentration 1000.0 nM"}, "[17]": {"target": "Cyclin-dependent kinase-like 1 (Homo sapiens) (UniProt Q00532)", "conditions": "Compound concentration 1000.0 nM"}, "[18]": {"target": "Interferon-induced, double-stranded RNA-activated protein kinase (Homo sapiens) (UniProt P19525)", "conditions": "Compound concentration 1000.0 nM"}, "[19]": {"target": "Eukaryotic translation initiation factor 2-alpha kinase 1 (Homo sapiens) (UniProt Q9BQI3)", "sequence (Q9BQI3 whole entry)": "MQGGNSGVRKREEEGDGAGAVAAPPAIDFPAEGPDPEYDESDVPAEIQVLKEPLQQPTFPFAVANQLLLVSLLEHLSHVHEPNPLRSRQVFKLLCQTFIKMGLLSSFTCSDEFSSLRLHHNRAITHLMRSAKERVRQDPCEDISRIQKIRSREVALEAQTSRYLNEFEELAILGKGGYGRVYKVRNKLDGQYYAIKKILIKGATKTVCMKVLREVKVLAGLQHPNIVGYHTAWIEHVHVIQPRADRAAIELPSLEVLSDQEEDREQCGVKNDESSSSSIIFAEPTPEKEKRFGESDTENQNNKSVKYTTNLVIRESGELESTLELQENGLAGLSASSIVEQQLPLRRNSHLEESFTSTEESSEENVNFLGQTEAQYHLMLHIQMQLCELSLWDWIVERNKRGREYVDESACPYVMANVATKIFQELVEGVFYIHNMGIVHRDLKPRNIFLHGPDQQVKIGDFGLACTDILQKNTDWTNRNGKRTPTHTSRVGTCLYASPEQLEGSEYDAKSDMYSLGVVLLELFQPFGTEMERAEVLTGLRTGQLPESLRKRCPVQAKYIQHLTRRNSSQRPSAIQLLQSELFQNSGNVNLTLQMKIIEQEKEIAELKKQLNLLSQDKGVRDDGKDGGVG", "conditions": "Compound concentration 1000.0 nM"}, "[20]": {"target": "Myosin light chain kinase, smooth muscle (Homo sapiens) (UniProt Q15746)", "sequence (Q15746 whole entry)": "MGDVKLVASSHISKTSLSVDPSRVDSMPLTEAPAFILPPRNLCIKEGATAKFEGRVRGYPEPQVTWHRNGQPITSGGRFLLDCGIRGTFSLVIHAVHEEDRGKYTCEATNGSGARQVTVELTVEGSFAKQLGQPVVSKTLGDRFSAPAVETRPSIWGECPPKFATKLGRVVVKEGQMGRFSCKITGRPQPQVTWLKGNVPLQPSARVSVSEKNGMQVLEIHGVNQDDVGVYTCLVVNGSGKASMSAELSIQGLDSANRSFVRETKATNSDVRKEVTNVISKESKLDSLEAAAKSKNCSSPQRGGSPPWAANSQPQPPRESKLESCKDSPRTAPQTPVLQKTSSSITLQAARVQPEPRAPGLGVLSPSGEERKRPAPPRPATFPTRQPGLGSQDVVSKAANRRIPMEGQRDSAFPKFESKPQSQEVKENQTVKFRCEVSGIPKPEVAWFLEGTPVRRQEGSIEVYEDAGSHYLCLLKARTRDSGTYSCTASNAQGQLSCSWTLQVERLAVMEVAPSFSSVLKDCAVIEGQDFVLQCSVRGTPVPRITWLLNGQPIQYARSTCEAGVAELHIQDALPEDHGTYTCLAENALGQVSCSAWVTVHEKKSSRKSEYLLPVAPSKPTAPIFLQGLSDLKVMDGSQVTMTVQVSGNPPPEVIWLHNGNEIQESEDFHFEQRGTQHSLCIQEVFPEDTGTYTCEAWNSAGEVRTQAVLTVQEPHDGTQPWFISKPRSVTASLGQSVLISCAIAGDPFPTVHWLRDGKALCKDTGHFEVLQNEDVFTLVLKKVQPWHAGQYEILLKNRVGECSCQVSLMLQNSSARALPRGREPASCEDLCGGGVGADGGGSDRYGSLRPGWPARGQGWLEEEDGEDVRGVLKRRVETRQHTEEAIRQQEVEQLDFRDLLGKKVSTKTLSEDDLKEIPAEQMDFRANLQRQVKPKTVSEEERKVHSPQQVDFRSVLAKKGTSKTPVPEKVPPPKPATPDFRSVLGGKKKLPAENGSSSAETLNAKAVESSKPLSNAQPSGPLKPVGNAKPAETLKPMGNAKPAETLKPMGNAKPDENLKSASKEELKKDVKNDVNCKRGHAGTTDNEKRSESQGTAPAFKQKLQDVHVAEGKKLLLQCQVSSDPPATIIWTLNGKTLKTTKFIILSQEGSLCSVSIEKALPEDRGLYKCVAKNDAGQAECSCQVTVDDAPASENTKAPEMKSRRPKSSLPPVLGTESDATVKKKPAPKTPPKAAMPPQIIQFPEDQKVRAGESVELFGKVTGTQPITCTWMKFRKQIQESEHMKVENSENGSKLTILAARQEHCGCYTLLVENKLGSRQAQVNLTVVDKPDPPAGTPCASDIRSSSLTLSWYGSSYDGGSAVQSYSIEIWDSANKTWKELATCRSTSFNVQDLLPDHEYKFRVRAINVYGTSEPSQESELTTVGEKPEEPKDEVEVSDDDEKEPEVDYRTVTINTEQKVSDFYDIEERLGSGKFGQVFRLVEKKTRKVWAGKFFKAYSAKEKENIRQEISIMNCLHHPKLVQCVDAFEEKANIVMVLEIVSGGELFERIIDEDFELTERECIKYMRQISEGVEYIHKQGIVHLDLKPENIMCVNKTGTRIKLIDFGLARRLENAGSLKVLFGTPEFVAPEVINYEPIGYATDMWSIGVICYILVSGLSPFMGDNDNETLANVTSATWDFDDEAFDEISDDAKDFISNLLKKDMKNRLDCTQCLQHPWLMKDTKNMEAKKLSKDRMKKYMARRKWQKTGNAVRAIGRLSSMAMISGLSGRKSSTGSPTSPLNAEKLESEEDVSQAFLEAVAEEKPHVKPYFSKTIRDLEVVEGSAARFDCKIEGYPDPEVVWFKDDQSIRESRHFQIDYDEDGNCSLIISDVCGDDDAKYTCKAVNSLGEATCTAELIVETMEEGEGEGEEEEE", "conditions": "Compound concentration 1000.0 nM"}, "[21]": {"target": "Serine/threonine-protein kinase N2 (Homo sapiens) (UniProt Q16513)", "conditions": "Compound concentration 1000.0 nM"}, "[22]": {"target": "Serine/threonine-protein kinase ULK1 (Homo sapiens) (UniProt O75385)", "conditions": "Compound concentration 1000.0 nM"}, "[23]": {"target": "D(4) dopamine receptor (Homo sapiens) (UniProt P21917)", "conditions": "Compound concentration 10.0 uM"}, "[24]": {"target": "STE20/SPS1-related proline-alanine-rich protein kinase (Homo sapiens) (UniProt Q9UEW8)", "conditions": "Compound concentration 1000.0 nM"}, "[25]": {"target": "Neutrophil elastase (Homo sapiens) (UniProt P08246)", "experiment": "ELASTASEPMN Eurofins-Panlabs selectivity data (BI)", "conditions": "Compound concentration 10.0 uM"}, "[26]": {"target": "ALK tyrosine kinase receptor (Homo sapiens) (UniProt Q9UM73)", "conditions": "Compound concentration 1000.0 nM"}, "[27]": {"target": "Kappa-type opioid receptor (Homo sapiens) (UniProt P41145)", "conditions": "Compound concentration 10.0 uM"}, "[28]": {"target": "Uncharacterized serine/threonine-protein kinase SBK3 (Homo sapiens) (UniProt P0C264)", "conditions": "Compound concentration 1000.0 nM"}, "[29]": {"system": "Serine/threonine-protein kinase B-raf (Homo sapiens), P15056 [V600E]", "conditions": "Compound concentration 1000.0 nM"}, "[30]": {"target": "MAP/microtubule affinity-regulating kinase 3 (Homo sapiens) (UniProt P27448)", "conditions": "Compound concentration 1000.0 nM"}, "[31]": {"target": "Calcium/calmodulin-dependent protein kinase type 1B (Homo sapiens) (UniProt Q6P2M8)", "sequence (Q6P2M8 whole entry)": "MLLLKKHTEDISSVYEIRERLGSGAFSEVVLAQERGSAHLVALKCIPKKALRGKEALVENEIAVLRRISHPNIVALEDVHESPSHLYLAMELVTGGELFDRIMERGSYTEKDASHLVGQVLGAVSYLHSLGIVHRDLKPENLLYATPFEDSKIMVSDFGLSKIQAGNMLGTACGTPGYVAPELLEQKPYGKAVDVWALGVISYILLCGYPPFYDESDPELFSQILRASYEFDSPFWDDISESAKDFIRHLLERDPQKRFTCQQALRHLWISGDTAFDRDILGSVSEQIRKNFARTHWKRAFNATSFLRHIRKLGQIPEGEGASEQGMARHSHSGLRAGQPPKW", "conditions": "Compound concentration 1000.0 nM"}, "[32]": {"target": "Mitogen-activated protein kinase kinase kinase 13 (Homo sapiens) (UniProt O43283)", "sequence (O43283 whole entry)": "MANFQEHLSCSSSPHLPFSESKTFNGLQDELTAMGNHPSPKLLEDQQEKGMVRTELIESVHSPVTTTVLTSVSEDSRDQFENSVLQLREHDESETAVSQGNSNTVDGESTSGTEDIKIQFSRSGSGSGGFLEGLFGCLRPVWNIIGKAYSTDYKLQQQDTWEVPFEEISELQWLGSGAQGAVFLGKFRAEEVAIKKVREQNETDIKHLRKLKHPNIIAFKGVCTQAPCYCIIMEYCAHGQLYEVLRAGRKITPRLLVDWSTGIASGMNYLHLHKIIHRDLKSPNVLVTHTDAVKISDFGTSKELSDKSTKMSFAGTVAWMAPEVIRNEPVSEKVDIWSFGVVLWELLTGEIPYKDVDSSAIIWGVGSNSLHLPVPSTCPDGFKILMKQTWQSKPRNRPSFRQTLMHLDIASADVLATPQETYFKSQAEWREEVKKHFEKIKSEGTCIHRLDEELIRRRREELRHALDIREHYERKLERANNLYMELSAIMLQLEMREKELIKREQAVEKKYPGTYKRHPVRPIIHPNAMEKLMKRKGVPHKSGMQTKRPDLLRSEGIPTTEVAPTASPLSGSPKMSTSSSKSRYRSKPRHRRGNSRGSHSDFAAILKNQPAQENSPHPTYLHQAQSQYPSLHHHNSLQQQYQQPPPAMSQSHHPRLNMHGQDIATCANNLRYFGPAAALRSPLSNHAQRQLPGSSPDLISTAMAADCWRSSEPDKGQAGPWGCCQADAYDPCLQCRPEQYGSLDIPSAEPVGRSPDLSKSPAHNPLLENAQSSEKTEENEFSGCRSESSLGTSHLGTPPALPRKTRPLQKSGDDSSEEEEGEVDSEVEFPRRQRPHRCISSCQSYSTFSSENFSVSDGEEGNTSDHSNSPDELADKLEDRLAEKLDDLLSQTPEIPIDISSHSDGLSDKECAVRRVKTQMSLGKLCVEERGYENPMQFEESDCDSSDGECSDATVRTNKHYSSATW", "conditions": "Compound concentration 1000.0 nM"}, "[33]": {"system": "Phosphatidylinositol 4,5-bisphosphate 3-kinase catalytic subunit alpha isoform (Homo sapiens), P42336 [E545A]", "conditions": "Compound concentration 1000.0 nM"}, "[34]": {"target": "Serine/threonine-protein kinase PAK 6 (Homo sapiens) (UniProt Q9NQU5)", "conditions": "Compound concentration 1000.0 nM"}}}
{"smiles": "CCOCCn1cc(C(=O)Nc2ccc(-n3nc(-c4cccnc4)cc3C(F)(F)F)cn2)ccc1=O", "note": "[BI 1935]", "values": [{"measurement": "residual activity", "setting": "[1]", "value": 88, "unit": "%"}, {"measurement": "residual activity", "setting": "[2]", "value": 117, "unit": "%"}, {"measurement": "residual activity", "setting": "[3]", "value": 100, "unit": "%"}, {"measurement": "residual activity", "setting": "[4]", "value": 100, "unit": "%"}, {"measurement": "residual activity", "setting": "[5]", "value": 117, "unit": "%"}, {"measurement": "residual activity", "setting": "[6]", "value": 103, "unit": "%"}, {"measurement": "residual activity", "setting": "[7]", "value": 97, "unit": "%"}, {"measurement": "residual activity", "setting": "[8]", "value": 100, "unit": "%"}, {"measurement": "residual activity", "setting": "[9]", "value": 100, "unit": "%"}, {"measurement": "activity at 10 µM", "setting": "[10]", "value": "94.5% (not active)"}, {"measurement": "residual activity", "setting": "[11]", "value": 100, "unit": "%"}, {"measurement": "residual activity", "setting": "[12]", "value": 100, "unit": "%"}, {"measurement": "residual activity", "setting": "[13]; Compound concentration 0.3 uM", "value": 99, "unit": "%"}, {"measurement": "residual activity", "setting": "[13]; Compound concentration 1.0 uM", "value": 88, "unit": "%"}, {"measurement": "residual activity", "setting": "[13]; Compound concentration 3.0 uM", "value": 74, "unit": "%"}, {"measurement": "residual activity", "setting": "[13]; Compound concentration 10.0 uM", "value": 27.5, "unit": "%"}, {"measurement": "residual activity", "setting": "[13]; Compound concentration 30.0 uM", "value": 2, "unit": "%"}, {"measurement": "inhibition", "setting": "[14]", "value": 50, "unit": "%"}, {"measurement": "residual activity", "setting": "[15]", "value": 100, "unit": "%"}, {"measurement": "residual activity", "setting": "[16]", "value": 72, "unit": "%"}, {"measurement": "residual activity", "setting": "[17]", "value": 80, "unit": "%"}, {"measurement": "residual activity", "setting": "[18]", "value": 100, "unit": "%"}, {"measurement": "residual activity", "setting": "[19]", "value": 84, "unit": "%"}, {"measurement": "residual activity", "setting": "[20]", "value": 73, "unit": "%"}, {"measurement": "residual activity", "setting": "[21]", "value": 100, "unit": "%"}, {"measurement": "residual activity", "setting": "[22]", "value": 76, "unit": "%"}, {"measurement": "inhibition", "setting": "[23]", "value": -3.89, "unit": "%"}, {"measurement": "residual activity", "setting": "[24]", "value": 100, "unit": "%"}, {"measurement": "residual activity", "setting": "[25]", "value": 100, "unit": "%"}, {"measurement": "residual activity", "setting": "[26]", "value": 79, "unit": "%"}, {"measurement": "inhibition", "setting": "[27]", "value": 3.2, "unit": "%"}, {"measurement": "residual activity", "setting": "[28]", "value": 78, "unit": "%"}, {"measurement": "residual activity", "setting": "[29]", "value": 97, "unit": "%"}, {"measurement": "residual activity", "setting": "[30]", "value": 100, "unit": "%"}, {"measurement": "residual activity", "setting": "[31]", "value": 79, "unit": "%"}, {"measurement": "residual activity", "setting": "[32]", "value": 100, "unit": "%"}, {"measurement": "residual activity", "setting": "[33]", "value": 100, "unit": "%"}, {"measurement": "residual activity", "setting": "[34]", "value": 100, "unit": "%"}]}
